# In ChEMBL document CHEMBL3885861, “Open TG-GATES”:
# Species on record: Rattus norvegicus
# Experiment: Open TG-GATES - Regimen: Daily Repeat
# Assay type: toxicity, organism-based, Sprague-Dawley
# Parameters: regimen Daily Repeat, gender Male, age 6 weeks
# Details: in vivo, po, route gavage; for APTT / Bas / Eos / Fbg / Hb / Ht / Lym / MCH / MCV / Mono / Neu / PT / Plat / RBC / Ret / WBC: tissue Blood; for KIDNEY_L / KIDNEY_R / KIDNEY_TOTAL: tissue Kidney; for LIVER: tissue Liver; for ALP / ALT / AST / BUN / CRE / Ca / Cl / DBIL / GLC / IP / K / LDH / Na / PL / RALB / TBIL / TP / gamma-GTP: tissue Plasma
# [1] = 30 mg/kg, 72 h, dose level Low, time 3 day
# [2] = 30 mg/kg, […], dose level Low, time 7 day
# [3] = 30 mg/kg, […], dose level Low, time 14 day
# [4] = 30 mg/kg, […], dose level Low, time 28 day
# [5] = 100 mg/kg, 72 h, dose level Middle, time 3 day
structure (smiles),measurement,setting,value
NC(=O)N1c2ccccc2C=Cc2ccccc21 [CARBAMAZEPINE],APTT,[1],19.7 s
same,Bas,[1],0%
same,Eos,[1],1%
same,Fbg,[1],213 mg/dL
same,Hb,[1],13.4 g/dL
same,Ht,[1],39.4%
same,Lym,[1],80.4%
same,MCH,[1],21 pg
same,MCV,[1],62 fL
same,Mono,[1],3.4%
same,Neu,[1],14%
same,PT,[1],12.2 s
same,Plat,[1],120.4 x10_4/uL
same,RBC,[1],636 x10_4/ul
same,Ret,[1],5.2%
same,WBC,[1],98.2 x10_2/uL
same,KIDNEY_L,[1],1 g
same,KIDNEY_R,[1],1 g
same,KIDNEY_TOTAL,[1],2 g
same,LIVER,[1],11.7 g
same,ALP,[1],1007.4 IU/L
same,ALT,[1],35.6 IU/L
same,AST,[1],66.6 IU/L
same,BUN,[1],14.8 mg/dL
same,CRE,[1],0.4 mg/dL
same,Ca,[1],10.8 mg/dL
same,Cl,[1],103.2 meq/L
same,DBIL,[1],0.094 mg/dL
same,GLC,[1],209.6 mg/dL
same,IP,[1],7.6 mg/dL
same,K,[1],3.5 meq/L
same,LDH,[1],197.2 IU/L
same,Na,[1],140 meq/L
same,PL,[1],148.8 mg/dL
same,RALB,[1],3.3 g/dL
same,TBIL,[1],0.1 mg/dL
same,TP,[1],5.6 g/dL
same,gamma-GTP,[1],1.2 IU/L
same,TERMINAL_BW,[2],270.1 g
same,TERMINAL_BW,[3],327.6 g
same,TERMINAL_BW,[4],366.9 g
same,APTT,[2],21.4 s
same,Bas,[2],0%
same,Eos,[2],0.8%
same,Fbg,[2],214.2 mg/dL
same,Hb,[2],13.7 g/dL
same,Ht,[2],40.2%
same,Lym,[2],83.2%
same,MCH,[2],20.8 pg
same,MCV,[2],61.1 fL
same,Mono,[2],2.4%
same,Neu,[2],12.6%
same,PT,[2],12 s
same,Plat,[2],127.1 x10_4/uL
same,RBC,[2],658.2 x10_4/ul
same,Ret,[2],4.4%
same,WBC,[2],103.7 x10_2/uL
same,APTT,[3],20.7 s
same,Bas,[3],0%
same,Eos,[3],1%
same,Fbg,[3],206.2 mg/dL
same,Hb,[3],14.3 g/dL
same,Ht,[3],41.1%
same,Lym,[3],83%
same,MCH,[3],20.4 pg
same,MCV,[3],58.8 fL
same,Mono,[3],2.4%
same,Neu,[3],12.6%
same,PT,[3],12.2 s
same,Plat,[3],119.9 x10_4/uL
same,RBC,[3],700.8 x10_4/ul
same,Ret,[3],4%
same,WBC,[3],100 x10_2/uL
same,APTT,[4],21 s
same,Bas,[4],0%
same,Eos,[4],0.8%
same,Fbg,[4],197.8 mg/dL
same,Hb,[4],15.9 g/dL
same,Ht,[4],45.7%
same,Lym,[4],83%
same,MCH,[4],19.5 pg
same,MCV,[4],55.9 fL
same,Mono,[4],2.2%
same,Neu,[4],12.6%
same,PT,[4],12.3 s
same,Plat,[4],108.1 x10_4/uL
same,RBC,[4],820.4 x10_4/ul
same,Ret,[4],2.2%
same,WBC,[4],127.9 x10_2/uL
same,KIDNEY_L,[2],1.1 g
same,KIDNEY_R,[2],1.1 g
same,KIDNEY_TOTAL,[2],2.2 g
same,KIDNEY_L,[3],1.3 g
same,KIDNEY_R,[3],1.3 g
same,KIDNEY_TOTAL,[3],2.6 g
same,KIDNEY_L,[4],1.3 g
same,KIDNEY_R,[4],1.3 g
same,KIDNEY_TOTAL,[4],2.6 g
same,LIVER,[2],12.5 g
same,LIVER,[3],15.3 g
same,LIVER,[4],14.4 g
same,ALP,[2],876.6 IU/L
same,ALT,[2],37 IU/L
same,AST,[2],70.6 IU/L
same,BUN,[2],16.2 mg/dL
same,CRE,[2],0.4 mg/dL
same,Ca,[2],10.4 mg/dL
same,Cl,[2],100.8 meq/L
same,DBIL,[2],0.088 mg/dL
same,GLC,[2],233.6 mg/dL
same,IP,[2],8.2 mg/dL
same,K,[2],3.7 meq/L
same,LDH,[2],187.4 IU/L
same,Na,[2],139.4 meq/L
same,PL,[2],150.8 mg/dL
same,RALB,[2],3.4 g/dL
same,TBIL,[2],0.1 mg/dL
same,TP,[2],5.7 g/dL
same,gamma-GTP,[2],1 IU/L
same,ALP,[3],890.2 IU/L
same,ALT,[3],30.8 IU/L
same,AST,[3],60.8 IU/L
same,BUN,[3],16.9 mg/dL
same,CRE,[3],0.5 mg/dL
same,Ca,[3],10.7 mg/dL
same,Cl,[3],101.2 meq/L
same,DBIL,[3],0.1 mg/dL
same,GLC,[3],219.8 mg/dL
same,IP,[3],7.1 mg/dL
same,K,[3],3.8 meq/L
same,LDH,[3],208.4 IU/L
same,Na,[3],140.6 meq/L
same,PL,[3],160.2 mg/dL
same,RALB,[3],3.4 g/dL
same,TBIL,[3],0.2 mg/dL
same,TP,[3],5.9 g/dL
same,gamma-GTP,[3],0.8 IU/L
same,ALP,[4],673 IU/L
same,ALT,[4],36.6 IU/L
same,AST,[4],68.4 IU/L
same,BUN,[4],17.8 mg/dL
same,CRE,[4],0.5 mg/dL
same,Ca,[4],10.3 mg/dL
same,Cl,[4],101.8 meq/L
same,DBIL,[4],0.098 mg/dL
same,GLC,[4],224.4 mg/dL
same,IP,[4],6.7 mg/dL
same,K,[4],3.4 meq/L
same,LDH,[4],150.8 IU/L
same,Na,[4],141.4 meq/L
same,PL,[4],148 mg/dL
same,RALB,[4],3.5 g/dL
same,TBIL,[4],0.1 mg/dL
same,TP,[4],6.2 g/dL
same,gamma-GTP,[4],1 IU/L
same,TERMINAL_BW,[5],234.6 g
same,APTT,[5],20.1 s
same,Bas,[5],0%
